Experimental findings from patent US7572762B1, “Materials and methods relating to the induction of apoptosis in target cells” (University of Dundee, priority 1998, dated 2009) are described below.

Data set [1] has as its system 293 cells (transformed kidney epithelial cells). Nature of the data set: FACS (propidium iodide) analysis of apoptosis, 293 cells. The format is cell-based, human. On the set-up: cell population induced to apoptose: dose or concentration left out as unconfirmed.
The subject of data set [2] is L428 Hodgkins lymphoma cells. Nature of the data set: FACS analysis of apoptosis and cell cycle, L428 cells. The settings on record: 48 hours. The format is cell-based, human.
In data set [3] the test system is control B lymphoid (Daudi) cell line. Nature of the data set: FACS analysis of control B lymphoid cells. The format is cell-based. The conditions noted are these: for apoptotic (sub-G1) cells: 48 hours, untreated basal apoptosis approximately 50%; for effect on control B cells: rimcazole 0.1 mM, 0.01 mM, 0.001 mM (FIG. 11c), haloperidol not shown.
Data set [4] relates to p53 null lung carcinoma (H1299) cells. Nature of the data set: FACS analysis of apoptosis and cell cycle, H1299 cells. It counts as cell-based, human. The text has this:
FIG. 8 illustrates a representative FACS (fluorescence activated cell sorting) profile obtained from the experiment indicated; horizontal axis denote DNA content of the cells and the vertical axis the numbers of cells that have a particular DNA content. Apoptotic cells have a subnormal DNA content and are represented as a peak to the extreme left of the profile (sub-G1); viable cells are represented in G1 and G2/M peaks which correspond to these phases of the cell cycle. Where percentages are provided, these indicate cells in sub-G1, G1 or G2/M phases, as indicated, as a percent of the total cell population. In all cases, the existence of apoptotic cells was confirmed by additional means such as microscopic examination.
Bar charts show quantitative data obtained from representative FACS analyses for the experiments indicated. In all cases, numbers of cells that are apoptotic (sub-G1), as a percentage of the total cell population, are depicted by diagonal-hatched bars; numbers of cells that are viable and in G1 (G1/S) phase of the cell cycle, as a percentage of the total cell population, are depicted by stippled bars; viable cells in G2/M phase of the cell cycle are depicted by horizontal-hatched bars.
The experiments described in the examples were performed using methods well-known to those skilled in the art and documented in standard text books in the field (e.g. Chapters 4 and 5, Methods in Cell Biology Vol 46 editors L. M. Schwartz and B. A. Osborne, Academic Press Ltd, London 1995 provides inter alia details on detection of apoptosis and cell division cycle arrest by FACS).

The conditions of data set [5]: mouse, in vivo.
Description: All drugs were dissolved in sterile water for injection and frozen as ˜2 ml aliquots, except haloperidol which was stored as a powder at RT and made up fresh each day in 45% cyclodextrin. The mice were housed in filter boxes in Maximiser laminar flow cabinets and fed sterilized food and water. All procedures were carried out in class 1 laminar flow hoods using sterile equipment and reagents. The mice were dosed daily by an intraperitoneal route (combined therapies dosed simultaneously) and body weights and tumour measurements recorded at frequent intervals.
Data set [6] relates to MDA MB 468 human breast carcinoma xenografts. In words: Human breast carcinoma xenograft growth in athymic mice. The format is in vivo. The conditions noted are these: 10 mg/kg/day intraperitoneal, day 45; all or selected tumours.
Data set [7] concerns human colon carcinoma (HT29) cells. In words: FACS analysis of apoptosis, HT29 cells. The format is cell-based.
The subject of data set [8] is Saos-2::p53^teti cells. In words: FACS analysis of osteosarcoma cells with tetracycline-inducible p53. The format is cell-based, human.
For data set [9], the system named is wild-type Saos-2 cells. Nature of the data set: Wild-type Saos-2 cells lacking p53. The conditions noted are these: low dose rimcazole combined with doxycycline. The format is cell-based, human.
Data set [10] deals with MDA MB 231 cells. In words: FACS analysis of hormone unresponsive breast carcinoma cells. The format is cell-based, human. The settings on record: rimcazole 0.001 mM, 48 hours.
Data set [11] concerns MCF 7::p53^val135 cells. Nature of the data set: Phase micrographs of MCF 7 cells with temperature sensitive p53. The format is cell-based, human.
Data set [12] has as its system MCF7 cells. Nature of the data set: FACS analysis of hormone responsive breast carcinoma cells. It counts as cell-based, human. The conditions noted are these: rimcazole 0.001 mM, 48 hours.
For data set [13], the system named is MDA MB 468 cells. In words: FACS analysis of hormone insensitive breast cancer cells. It counts as cell-based, human.

With `Oc1ccc2c3c1O[C@H]1c4[nH]c5ccccc5c4C[C@@]4(O)[C@@H](C2)N(CC2CC2)CC[C@]314` [naltrindole], in [1], the induction of death result is “fails to induce death” and the “induction of sub-G1 (apoptotic) cells” value is recorded as “marked induction”. Moreover, the apoptosis induction result in data set [2] (10^−4M) was “majority of the cell population”. For the same molecule, in data set [2] (10^−5M), the apoptosis induction entry is listed as “substantial amount of apoptosis” and the “mitotic arrest (G2/M cells)” value is listed as “increase in percentage of G2/M cells”. Further, the “apoptotic (sub-G1) cells” value in data set [3] is listed as “approximately 50%”. For the same molecule, in [4], the “G2/M cell cycle arrest” value was “appearance of a G2/M peak” and the induction of apoptosis result is listed as “marked induction of apoptosis”.

`O=C(CCCN1CCC(O)(c2ccc(Cl)cc2)CC1)c1ccc(F)cc1` [haloperidol, 4(4-(4-chlorophenyl)-4-hydroxy-1-piperidinyl)-1-(4-fluorophenyl)-1-Butanone]: the apoptotic cells in [1] (haloperidol 10^−5 M combined with transfected RelA(p65)) is 47%; in data set [1] (haloperidol 10^−5 M on its own), 2-3%. In addition, the “sub-G1 apoptotic cells, % of total cell population” value in data set [1] (haloperidol without IκB (FIG. 9c)) is listed as 58%; in [1] (non-degradable mutant IκB plasmid transfected prior to haloperidol) it was 5%. Moreover, in data set [5], the “ill effects / toxicity in mice” value is reported as “transient sleepiness”. Also, in data set [3], the “effect on control B cells” value is on record as “unaffected”. For the same molecule, in data set [6], the “tumour growth inhibition (tumour weights at excision)” value is listed as “growth inhibition”. For the same molecule, the apoptosis is 4% in [4] (haloperidol 10^−5M alone) and 59% in [4] (haloperidol 10^−5M combined with TNF).

For `COc1ccc2c(c1OC)C(=O)O[C@@H]2[C@H]1c2c(cc3c(c2OC)OCO3)CCN1C` (relative stereo) [noscapine, (S-(R*,S*))-6,7-Dimethoxy-3-(5,6,7,8-tetrahydro-4-methoxy-6-methyl-1,3-dioxolo(4,5-g)isoquinolin-5-yl)-1(3H)-Isobenzofuranone], the apoptosis induction entry in [2] (10^−4M) is given as “majority of the cell population”. Further, in [2] (10^−5M), the apoptosis induction entry was “substantial amount of apoptosis” and the “mitotic arrest (G2/M cells)” value is recorded as “increase in percentage of G2/M cells”. The “apoptotic (sub-G1) cells” value in [3] is recorded as “approximately 50%”. Further, the “apoptotic cells, % of total cell population” value in [4] (10^−4M combined with TNF 5 ng/ml) is 74%. Also, in data set [4] (10^−4M, 48 hours, alone), the apoptotic cells came out at 39%. Moreover, the “apoptosis, % of cell population” value in data set [7] (10^−4M on its own) is reported as 67%. Besides, the apoptosis result in [7] (10^−4M with TNF added) is reported as “additional increase”.

Take `C[C@H]1c2cccc(O)c2C(=O)C2=C(O)[C@]3(O)C(=O)C(C(N)=O)=C(O)[C@@H](N(C)C)[C@@H]3[C@@H](O)[C@@H]21` [doxycycline]: in data set [8] (low dose doxycycline alone), the “cells undergoing apoptosis, % of total population” value is given as 4%.

Consider `C[C@@H]1CN(CCCn2c3ccccc3c3ccccc32)C[C@H](C)N1` [rimcazole, cis-9-[3-(3,5-Dimethyl-1-piperazinyl)propyl]-9H-carbazole], for which the “effect of combination on apoptosis” value in data set [9] is listed as “no effect”. Moreover, the “cell population induced to apoptose” value is listed as 1% in data set [1] (rimcazole alone), 75% in [1] (rimcazole in combination with transiently overexpressed p53) and “approximately 5%” in [8] (rimcazole 100 nM alone). Moreover, the apoptotic cells in [8] (rimcazole 100 nM combined with doxycycline 0.02 μg/ml) was found to be 85%; in [13] (0.001 mM, approximately 48 hours), 16%. Moreover, in data set [10], the “apoptotic cells, % of total cell population” value amounted to 25%. The “proportion of G2/M cells” value is given as 62% in data set [10] and 32% in [12]. For the same molecule, the “effect on control B cells” value in [3] is “unaffected”. For the same molecule, the “apoptosis (phase micrographs)” value in data set [11] (32 degC (p53 wild-type conformation), e.g. 0.001 mM) is on record as “marked induction of apoptosis”; in [11] (37 degC), “largely unaffected”; in data set [11] (37 degC (p53 largely inactive), 0.1 mM), “Apoptosis is induced”. Also, the “tumour growth inhibition (tumour weights at excision)” value in [6] is on record as “significant tumour growth inhibition”. For the same molecule, the apoptosis in data set [12] was 6%; in data set [4] (rimcazole 0.01 mM in combination with trans-U50488 0.1 mM), 67%. Further, the “apoptosis, % of cells” value in data set [4] (sublethal dose alone) is 4%; in [4] (sublethal dose of rimcazole with sublethal dose of TNF) it was 61%. Moreover, in data set [13] (0.01 millimoles per liter, approximately 48 hours), the “apoptosis, % of cell population” value was found to be 79%. For the same molecule, in [13] (rimcazole 0.001 mM combined with cis-U50488 0.1 mM), the “cells induced to apoptose” value came out at 83%.

B1: proenkephalin: proenkephalin destined for the secretory pathway, overexpressed from transiently transfected plasmid DNA (protein, UniProt P01210 1-267, looked up)
chain: MARFLTLCTWLLLLGPGLLATVRAECSQDCATCSYRLVRPADINFLACVMECEGKLPSLKIWETCKELLQLSKPELPQDGTSTLRENSKPEESHLLAKRYGGFMKRYGGFMKKMDELYPMEPEEEANGSEILAKRYGGFMKKDAEEDDSLANSSDLLKELLETGDNRERSHHQDGSDNEEEVSKRYGGFMRGLKRSPQLEDEAKELQKRYGGFMRRVGRPEWWMDYQKRYGGFLKRFAEALPSDEEGESYSKEVPEMEKRYGGFMRF
modifications: full-length
notes: proenkephalin destined for the secretory pathway, overexpressed from transiently transfected plasmid DNA
With B1, in data set [1] (alone, 48 hours, TNF 5 ng/ml, proenkephalin 5 μg plasmid DNA (secretory) transfected), the induction of apoptosis entry is given as “no induction of apoptosis”. Also, the “reduction in percentage of sub-G1 (apoptotic) cells” value in [1] (proenkephalin + TNF, co-transfection of 5 μg IκB plasmid) is “greater than 50%”. Further, the “percentage of apoptotic (sub-G1) cells” value in data set [1] (proenkephalin overexpressed in combination with TNF 5 ng/ml) is recorded as “marked increase”.
